The numbers were not newly measured in patent publication US20050084547A1, “Natural product based apoptosis inducers” (PhytoMyco Research Corporation, priority 2003, published 2005), which cites them from elsewhere.

Each structure is given as a SMILES string.

This data set has as its system human leukemia HL-60 cells. The following applies: microscopy, flow cytometry, DNA fragmentation assay.

As for `CC(=O)OC(C1CO1)C(OC(C)=O)C1CO1` (stereo not shown) [DADAG, diacetyldianhydrogalactitol], the apoptosis induction entry is “induced apoptosis in the HL-60 cells”.
